Results as given in ChEMBL document CHEMBL6177952, “Exploring chloro-isoxazole compounds inspired on tetrahydrofuran neolignans as promising antileishmanial agents” (Eur J Med Chem, 2025).
pIC50: −log10 of the molar value.

Tests used:
[1] = Mutagenicity in Salmonella typhimurium TA98 assessed as number of revertant colonies per plate at 2.5 microg/ml in presence of S9 fraction by Ames test; type: toxicity, subcellular; conditions: salmonella enterica subsp. enterica serovar typhimurium, dose 2.5 µg/ml
[2] = Mutagenicity in Salmonella typhimurium TA100 assessed as number of revertant colonies per plate at 2.5 microg/ml in presence of S9 fraction by Ames test; type: toxicity, subcellular; conditions: salmonella enterica subsp. enterica serovar typhimurium, dose 2.5 µg/ml
[3] = Selectivity ratio of CC50 for cytotoxicity against BALB/c mouse Peritoneal macrophage assessed as inhibition of cell growth to IC50 for antileishmanial activity against leishmania amazonensis IFLA/BR/1967/PH8 intracellular amastigote infected in mouse Peritoneal macrophage; type: toxicity, cell-based; conditions: peritoneal macrophages, read-out: Ratio CC50/IC50
Leishmania amazonensis [4] = test: Antileishmanial activity against leishmania amazonensis IFLA/BR/1967/PH8 intracellular amastigote infected in mouse Peritoneal macrophage incubated for 24 hrs; type: functional, organism-based; conditions: IFLA/BR/1967/PH8, Peritoneal macrophage
Leishmania amazonensis [5] = test: Antileishmanial activity against leishmania amazonensis IFLA/BR/1967/PH8 promastigotes infected in mouse Peritoneal macrophage incubated for 24 hrs; type: functional, organism-based; conditions: IFLA/BR/1967/PH8, Peritoneal macrophage
[6] = Cytotoxicity against BALB/c mouse Peritoneal macrophage assessed as inhibition of cell growth incubated for 48 hrs by MTT assay; type: toxicity, cell-based; conditions: peritoneal macrophages
[7] = Selectivity ratio of CC50 for cytotoxicity against BALB/c mouse Peritoneal macrophage assessed as inhibition of cell growth to IC50 for antileishmanial activity against leishmania amazonensis IFLA/BR/1967/PH8 promastigotes infected in mouse Peritoneal macrophage; type: toxicity, cell-based; conditions: peritoneal macrophages, read-out: Ratio CC50/IC50
Leishmania amazonensis [8] = test: Antileishmanial activity against leishmania amazonensis IFLA/BR/1967/PH8 promastigotes assessed as reduction in parasite growth measured for 72 hrs; type: functional, organism-based; conditions: IFLA/BR/1967/PH8, 72 h
Leishmania amazonensis [9] = test: Antileishmanial activity against Leishmania amazonensis promastigotes; type: functional, organism-based
Leishmania amazonensis [10] = test: Antileishmanial activity against leishmania amazonensis IFLA/BR/1967/PH8 intracellular amastigotes infected in mouse Peritoneal macrophage assessed as reduction in parasite growth measured for 24 hrs; type: functional, organism-based; conditions: IFLA/BR/1967/PH8, Peritoneal macrophage
Leishmania amazonensis [11] = test: Antiparasitic activity against Leishmania amazonensis promastigotes incubated for 24 hrs; type: functional, organism-based
Leishmania amazonensis [12] = test: Antileishmanial activity against leishmania amazonensis assessed as reduction in parasite growth; type: functional, organism-based
Leishmania amazonensis [13] = test: Antileishmanial activity against leishmania amazonensis infected in BALB/c mouse assessed as reduction parasite load in footpad; type: functional; design: scale not given: the % may be the effect or the level left
Leishmania amazonensis [14] = test: Antileishmanial activity against leishmania amazonensis IFLA/BR/1967/PH8 amastigote measured for 72 hrs; type: functional, organism-based; conditions: IFLA/BR/1967/PH8, 72 h
Leishmania amazonensis [15] = test: Potency index, ratio of pentamidine IC50 to test compound IC50 for antileishmanial activity against leishmania amazonensis IFLA/BR/1967/PH8 intracellular amastigote infected in mouse Peritoneal macrophage incubated for 24 hrs; type: functional
[16] = Mutagenicity in Salmonella typhimurium TA98 assessed as number of revertant colonies per plate at 10 microg/ml by Ames test; type: toxicity; conditions: salmonella enterica subsp. enterica serovar typhimurium; dose 10 µg/ml
Leishmania amazonensis [17] = test: Antileishmanial activity against Leishmania amazonensis promastigotes assessed as necrotic parasites at 10.4 uM incubated for 24 hrs by Annexin V/7-AAD staining based flow cytometry analysis relative to control; type: functional
Leishmania amazonensis [18] = test: Antileishmanial activity against Leishmania amazonensis promastigotes assessed as viable apoptotic parasites at 10.4 uM incubated for 48 hrs by Annexin V/7-AAD staining based flow cytometry analysis relative to control; type: functional
Leishmania amazonensis [19] = test: Antileishmanial activity against Leishmania amazonensis promastigotes assessed as necrotic parasites at 10.4 uM incubated for 48 hrs by Annexin V/7-AAD staining based flow cytometry analysis relative to control; type: functional
Leishmania amazonensis [20] = test: Antileishmanial activity against Leishmania amazonensis promastigotes assessed as late apoptotic parasites at 10.4 uM incubated for 48 hrs by Annexin V/7-AAD staining based flow cytometry analysis relative to control; type: functional
Leishmania amazonensis [21] = test: Antileishmanial activity against Leishmania amazonensis promastigotes assessed as early apoptotic parasites at 10.4 uM incubated for 24 hrs by Annexin V/7-AAD staining based flow cytometry analysis relative to control; type: functional
Leishmania amazonensis [22] = test: Antileishmanial activity against Leishmania amazonensis promastigotes assessed as late apoptotic parasites at 10.4 uM incubated for 72 hrs by Annexin V/7-AAD staining based flow cytometry analysis relative to control; type: functional
Leishmania amazonensis [23] = test: Antileishmanial activity against Leishmania amazonensis promastigotes assessed as early apoptotic parasites at 10.4 uM incubated for 72 hrs by Annexin V/7-AAD staining based flow cytometry analysis relative to control; type: functional
Leishmania amazonensis [24] = test: Antileishmanial activity against Leishmania amazonensis promastigotes assessed as viable apoptotic parasites at 10.4 uM incubated for 72 hrs by Annexin V/7-AAD staining based flow cytometry analysis relative to control; type: functional
Leishmania amazonensis [25] = test: Antileishmanial activity against Leishmania amazonensis promastigotes assessed as late apoptotic parasites at 10.4 uM incubated for 24 hrs by Annexin V/7-AAD staining based flow cytometry analysis relative to control; type: functional
Leishmania amazonensis [26] = test: Antileishmanial activity against Leishmania amazonensis promastigotes assessed as viable apoptotic parasites at 10.4 uM incubated for 24 hrs by Annexin V/7-AAD staining based flow cytometry analysis relative to control; type: functional
Leishmania amazonensis [27] = test: Antileishmanial activity against Leishmania amazonensis promastigotes assessed as early apoptotic parasites at 10.4 uM incubated for 48 hrs by Annexin V/7-AAD staining based flow cytometry analysis relative to control; type: functional
Leishmania amazonensis [28] = test: Antileishmanial activity against Leishmania amazonensis promastigotes assessed as necrotic parasites at 10.4 uM incubated for 72 hrs by Annexin V/7-AAD staining based flow cytometry analysis relative to control; type: functional

Structure (SMILES) | selectivity ratio [3] | pIC50 (Leishmania amazonensis [4]) | pIC50 (Leishmania amazonensis [5]) | CC50 at 48 h [6] [µM] | selectivity ratio [7] | other results
Nc1ccc2cc3ccccc3cc2c1 [2-AMINOANTHRACENE] |  |  |  |  |  | Activity [1]: 231 revertants/plate; revertant count [2]: 963 revertants/plate
COc1cc(OC)cc(-c2cc(-c3cc(OC)c(OC)c(OC)c3Cl)no2)c1 | 1.5 | 4.71 | 4.15 | 28 | 0.4 | 
COc1ccc(-c2cc(-c3cc(OC)c(OC)c(OC)c3Cl)no2)cc1OC | 0.8 | 4.50 | 4.06 | 26.7 | 0.3 | 
COc1cc(-n2cc(-c3ccc4c(c3)OCO4)nn2)cc(OC)c1OC | 1 | 4.63 | 4.92 | 23.5 | 1.9 | pIC50 (Leishmania amazonensis [8]): 5.14
COc1ccc(-c2cc(-c3cc(OC)c(OC)c(OC)c3Cl)on2)cc1 | 4.9 | 4.90 | 4.34 | 60.7 | 1.3 | 
COc1ccc(-c2cc(-c3cc(OC)c(OC)c(OC)c3)no2)cc1OC |  |  |  |  |  | pIC50 (Leishmania amazonensis [9]): 4.71
COc1ccc(-n2cc(-c3cc(OC)c(OC)c(OC)c3)nn2)cc1OC |  |  |  |  |  | pIC50 (Leishmania amazonensis [9]): 3.91; pIC50 (Leishmania amazonensis [10]): 3.91
COc1cc(-c2cn(-c3cc(OC)c(OC)c(OC)c3)nn2)cc(OC)c1OC |  |  |  |  |  | pIC50 (Leishmania amazonensis [11]): < 3.70
COc1ccc(-c2cc(-c3cc(OC)c(OC)c(OC)c3)on2)cc1OC | 21 | 5.80 |  |  |  | pIC50 (Leishmania amazonensis [12]): 4.69; Activity (Leishmania amazonensis [13]): 98.5%
COc1cc(-c2cc(-c3ccc4c(c3)OCO4)no2)cc(OC)c1OC |  |  |  |  |  | pIC50 (Leishmania amazonensis [14]): 5.48
COc1ccc(-c2cn(-c3cc(OC)c(OC)c(OC)c3)nn2)cc1OC |  |  |  |  |  | pIC50 (Leishmania amazonensis [9]): 3.71
COc1cc(OC)cc(-c2cc(-c3cc(OC)c(OC)c(OC)c3Cl)on2)c1 | 11.3 | 5.14 | 4.51 | 82.6 | 2.6 | 
COc1cc(-c2cc(-c3ccc4c(c3)OCO4)no2)c(Cl)c(OC)c1OC | 3.3 | 4.99 | 3.99 | 33.7 | 0.3 | Ratio IC50 (Leishmania amazonensis [15]): <=7
Nc1ccc([N+](=O)[O-])cc1N |  |  |  |  |  | Activity [16]: 253 µg
COc1ccc(-c2cc(-c3cc(OC)c(OC)c(OC)c3Cl)no2)cc1 | 0.8 | 4.96 | 5.05 | 9.6 | 1 | 
COc1ccc(-c2cc(-c3cc(OC)c(OC)c(OC)c3Cl)on2)cc1OC | 4.1 | 4.94 | 4.04 | 47.2 | 0.5 | 
COc1cccc2c1C(=O)c1c(O)c3c(c(O)c1C2=O)C[C@@](O)(C(=O)CO)C[C@@H]3O[C@H]1C[C@H](N)[C@H](O)[C@H](C)O1 [DOXORUBICIN] |  |  |  | 2.4 |  | 
COc1cc(-c2cc(-c3cc(OC)c(OC)c(OC)c3Cl)on2)cc(OC)c1OC | 0.2 | 4.90 | 4.47 | 2.7 | 0.07 | 
COc1cc(-c2cc(-c3cc(OC)c(OC)c(OC)c3)on2)cc(OC)c1OC |  |  |  |  |  | pIC50 (Leishmania amazonensis [11]): 4.75
C[C@@H]1[C@H](O)[C@@H](C)/C=C/C=C/C=C/C=C/C=C/C=C/C=C/[C@H](O[C@@H]2O[C@H](C)[C@@H](O)[C@H](N)[C@@H]2O)C[C@@H]2O[C@](O)(C[C@@H](O)C[C@@H](O)[C@H](O)CC[C@@H](O)C[C@@H](O)CC(=O)O[C@H]1C)C[C@H](O)[C@H]2C(=O)O [AMPHOTERICIN B] |  | 5.70 | 4.98 | 12.8 |  | Activity (Leishmania amazonensis [17]): 0.3%; Activity (Leishmania amazonensis [18]): 97.1%; Activity (Leishmania amazonensis [19]): 0.6%; Activity (Leishmania amazonensis [20]): 0.6%; Activity (Leishmania amazonensis [21]): 0.6%; Activity (Leishmania amazonensis [22]): 1.5%; Activity (Leishmania amazonensis [23]): 0.8%; Activity (Leishmania amazonensis [24]): 95.1%; Activity (Leishmania amazonensis [25]): 0.3%; Activity (Leishmania amazonensis [26]): 98.7%; Activity (Leishmania amazonensis [27]): 1.6%; Activity (Leishmania amazonensis [28]): 2.5%
COc1cc(-c2cc(-c3cc(OC)c(OC)c(OC)c3Cl)no2)cc(OC)c1OC | 0.3 | 4.66 | 4.13 | 7 | 0.1 | 
N=C(N)c1ccc(OCCCCCOc2ccc(C(=N)N)cc2)cc1 [PENTAMIDINE] | 1.4 | 4.79 | 5.89 | 23.2 | 17.8 | 
